From patent US4839375A, “(Aryl or heteroaromatic methyl)-2,2'-bi-1H-imidazoles and their use as anti-hypertensive agents” (Merrell Dow Pharmaceuticals Inc., priority 1987, dated 1989)

Molecular target: T1, dopamine β-hydroxylase (DBH) (Bos taurus, UniProt P15101)
T1 sequence (P15101 1-610): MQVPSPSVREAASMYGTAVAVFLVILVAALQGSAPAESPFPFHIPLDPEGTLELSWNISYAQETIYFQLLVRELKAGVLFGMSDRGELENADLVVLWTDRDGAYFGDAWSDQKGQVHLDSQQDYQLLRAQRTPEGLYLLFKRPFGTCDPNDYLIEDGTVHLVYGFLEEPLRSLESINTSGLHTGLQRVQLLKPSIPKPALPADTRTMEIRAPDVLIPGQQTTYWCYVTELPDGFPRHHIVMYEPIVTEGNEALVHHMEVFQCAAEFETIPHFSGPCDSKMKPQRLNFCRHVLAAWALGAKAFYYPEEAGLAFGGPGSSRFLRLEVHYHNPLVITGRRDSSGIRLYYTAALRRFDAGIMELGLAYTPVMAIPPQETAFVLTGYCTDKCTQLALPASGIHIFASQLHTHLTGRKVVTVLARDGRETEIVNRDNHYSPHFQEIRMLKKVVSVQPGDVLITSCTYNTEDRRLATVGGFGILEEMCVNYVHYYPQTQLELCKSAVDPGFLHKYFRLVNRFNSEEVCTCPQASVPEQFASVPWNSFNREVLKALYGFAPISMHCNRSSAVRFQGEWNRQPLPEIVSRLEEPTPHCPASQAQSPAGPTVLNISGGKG
Experiment: DBH inhibition, oxygen uptake followed with a polarographic electrode and oxygen monitor
Format: biochemical
Conditions: ascorbate electron donor, tyramine substrate; pH 4.5 to 5.5, preferably pH 5.0; 20° C. to 40° C., preferably 37° C.; read-out: DBH inhibitory activity, IC50 (concentration at which the reaction is inhibited by 50%)
Protocol: The DBH inhibitory properties of the compounds of this invention can readily be determined by standard and well-known procedures. For example, inhibition of DBH was determined by a procedure wherein enzymatic activity was ascertained in aqueous solution in the presence of molecular oxygen, an electron donor such as ascorbate, a substrate such as tyramine, an inhibitor, and the necessary cofactors for the enzyme at a pH of 4.5 to 5.5, preferably pH 5.0, and at a temperature of 20° C. to 40° C., preferably 37° C. The inhibitor was assayed over a range of concentrations. Each reaction was followed by measuring oxygen uptake as an indication of enzyme activity using a polarographic electrode and an oxygen monitor, following the method of S. May, et al., J. Biol. Chem., 256, 2258 (1981).

SMILES | IC50 [µM]
c1c[nH]c(-c2nc(Cc3ccsc3)c[nH]2)n1 [4-(3-thienylmethyl)-2,2'-bi-1H-imidazole] | 8.8
c1csc(Cn2ccnc2-c2ncc[nH]2)c1 [1-(2-Thienylmethyl)-2,2'-bi-1H-imidazole] | 65.5
c1c[nH]c(-c2nccn2Cc2ccsc2)n1 [1-(3-thienylmethyl)-2,2'-bi-1H-imidazole] | 29
